Laboratory results from paper PMC12647645, “Structural interactions of BWC0977 with Klebsiella pneumoniae topoisomerase IV and biochemical basis of its broad-spectrum activity” (Communications Biology, 2025).
In brackets after ≈: the same amount, converted by molar mass. Where two headings read alike, the source gives them in different places.

What was measured:
[1] = tested on: E. coli MG1655 GyrA WT, ParC D79N; assay: microbe, parasite or virus in culture; type: cell-based; details: Escherichia coli
[2] = tested on: E. coli MG1655 GyrA D82N, ParC D79N; assay: microbe, parasite or virus in culture; type: cell-based; details: Escherichia coli
[3] = tested on: E. coli MG1655 GyrA WT, ParC R119K; assay: microbe, parasite or virus in culture; type: cell-based; details: Escherichia coli
[4] = tested on: E. coli MG1655 GyrA R121K, ParC WT; assay: microbe, parasite or virus in culture; type: cell-based; details: Escherichia coli
[5] = tested on: E. coli MG1655 GyrA D82N, ParC WT; assay: microbe, parasite or virus in culture; type: cell-based; details: Escherichia coli
[6] = tested on: E. coli MG1655 GyrA M120A, ParC M118A; assay: microbe, parasite or virus in culture; type: cell-based; details: Escherichia coli
[7] = tested on: E. coli MG1655 (GyrA WT, ParC WT); assay: microbe, parasite or virus in culture; type: cell-based; details: Escherichia coli
E. coli gyrase = biological target: T1, E. coli gyrase (Escherichia coli, UniProt P0AES4+P0AES6); assay: biochemical; type: biochemical
T1 construct: purchased Inspiralis

E. coli topoisomerase IV = biological target: T2, E. coli topoisomerase IV (Escherichia coli, UniProt P0AFI2+P20083); assay: biochemical; type: biochemical; details: read-out: IC50 E. coli topo IV decatenation
T2 construct: purchased Inspiralis

A. baumannii ATCC 19606 = assay: MIC broth microdilution; type: cell-based; details: Acinetobacter baumannii
[8] = tested on: A. baumannii ATCC 19606 resistant mutant colonies (mutant 1-5); assay: microbe, parasite or virus in culture; type: cell-based; details: Acinetobacter baumannii
Human topo IIß = Human topo IIß (Homo sapiens, UniProt Q02880); assay: Human topo IIß decatenation assay; type: biochemical
Procedure: (§1) Human topo IIα (0.9 nM) and topo IIß (2.2 nM) decatenation assays were performed following the same protocol used for bacterial topoisomerase IV decatenation assays. The assay buffer was made of 50 mM Tris. HCl (pH 7.5), 125 mM NaCl, 10 mM MgCl2, 5 mM DTT, and 100 μg/mL albumin.

Human topo IIα = Human topo IIα (Homo sapiens, UniProt P11388); assay: Human topo IIα decatenation assay; type: biochemical
Procedure: as §1

[9] = ATCC19606, WT, Supplementary Table 4, read-out: MIC 90 in (μg/mL), A. baumannii ATCC 19606 (WT)
[10] = ATCC19606, read-out: MIC 90 in (μg/mL), resistant mutant colony 3
[11] = ATCC19606, read-out: MIC 90 in (μg/mL), resistant mutant colony 5
[12] = ATCC19606, read-out: MIC 90 in (μg/mL), resistant mutant colony 1
[13] = ATCC19606, read-out: MIC 90 in (μg/mL), resistant mutant colony 2
[14] = ATCC19606, read-out: MIC 90 in (μg/mL), resistant mutant colony 4

In the case of `CC1(C)S[C@@H]2[C@H](NC(=O)[C@H](N)c3ccccc3)C(=O)N2[C@H]1C(=O)O` [Ampicillin], the MIC [1] is reported as 2.5 µg/mL (≈ 7.15 µM), the MIC [2] is reported as 3.3 µg/mL (≈ 9.44 µM) and the MIC [3] is reported as 5 µg/mL (≈ 14.3 µM). It also gave an MIC [4] of 4.2 µg/mL (≈ 12 µM), an MIC [5] of 5 µg/mL (≈ 14.3 µM) and an MIC [6] of 4.2 µg/mL (≈ 12 µM). It also gave an MIC [7] of 5 µg/mL (≈ 14.3 µM).

Work on `C[C@H]1COc2c(N3CCN(C)CC3)c(F)cc3c(=O)c(C(=O)O)cn1c23` [Levofloxacin] yielded an MIC [1] of 0.02 µg/mL (≈ 0.0553 µM), an MIC [2] of 0.25 µg/mL (≈ 0.692 µM) and an IC50 (E. coli gyrase) of 0.39 µM. For the same compound, the MIC [3] was 0.04 µg/mL (≈ 0.111 µM), the IC50 (E. coli topoisomerase IV) was 13 µM and the MIC [4] was 0.08 µg/mL (≈ 0.221 µM). For the same compound, the MIC [5] was 0.13 µg/mL (≈ 0.36 µM), the MIC [6] was 0.02 µg/mL (≈ 0.0553 µM) and the MIC [7] was 0.03 µg/mL (≈ 0.083 µM).

For `C[C@@H](O)[C@H]1C(=O)N2C(C(=O)O)=C(S[C@@H]3CN[C@H](C(=O)N(C)C)C3)[C@H](C)[C@H]12` [Meropenem], the MIC90 (A. baumannii ATCC 19606; [9]) was 0.3 µg/mL (≈ 0.782 µM), the MIC90 [8, 10] was 0.15 µg/mL (≈ 0.391 µM) and the MIC90 [8, 11] was 0.6 µg/mL (≈ 1.56 µM).

`CO[C@@H]1[C@@H](OC(N)=O)[C@@H](O)[C@H](Oc2ccc3c(O)c(NC(=O)c4ccc(O)c(CC=C(C)C)c4)c(=O)oc3c2C)OC1(C)C` [Novobiocin] was tested, and the MIC90 (A. baumannii ATCC 19606; [9]) was 10 µg/mL (≈ 16.3 µM).

`CO[C@H]1/C=C/O[C@@]2(C)Oc3c(C)c(O)c4c(O)c(c(/C=N/N5CCN(C)CC5)c(O)c4c3C2=O)NC(=O)/C(C)=C\C=C\[C@H](C)[C@H](O)[C@@H](C)[C@@H](O)[C@@H](C)[C@H](OC(C)=O)[C@@H]1C` [Rifampicin] was tested, and the MIC90 (A. baumannii ATCC 19606; [9]) was 2.5 µg/mL (≈ 3.04 µM) and the MIC90 [8, 12] was 1.25 µg/mL (≈ 1.52 µM).

With `CC[C@H]1OC(=O)[C@@](C)(F)C(=O)[C@H](C)[C@@H](O[C@@H]2O[C@H](C)C[C@H](N(C)C)[C@H]2O)[C@](C)(OC)C[C@@H](C)C(=O)[C@H](C)[C@H]2N(CCCCn3cc(-c4cccc(N)c4)nn3)C(=O)O[C@]12C` [Solithromycin] the MIC90 (A. baumannii ATCC 19606; ATCC19606, read-out: MIC 90 in (μg/mL), A. baumannii ATCC 19606 (WT)) was 2.5 µg/mL (≈ 2.96 µM), the MIC90 [8, 12] was 5 µg/mL (≈ 5.92 µM) and the MIC90 [8, 13] was 2.5 µg/mL (≈ 2.96 µM). The MIC90 [8, 10] was 2.5 µg/mL (≈ 2.96 µM), the MIC90 [8, 14] was 5 µg/mL (≈ 5.92 µM) and the MIC90 [8, 11] was 2.5 µg/mL (≈ 2.96 µM).

In the case of `COc1cc([C@@H]2c3cc4c(cc3[C@@H](O[C@@H]3O[C@@H]5CO[C@@H](c6cccs6)O[C@H]5[C@H](O)[C@H]3O)[C@H]3COC(=O)[C@H]23)OCO4)cc(OC)c1O` [Teniposide], the IC50 (Human topo IIß) is reported as 92 µM and the IC50 (Human topo IIα; read-out: IC50 Human topo IIα decatenation) is reported as 18 ± 5 µM.

`CN(C)[C@@H]1C(O)=C(C(N)=O)C(=O)[C@@]2(O)C(O)=C3C(=O)c4c(O)cccc4[C@@](C)(O)[C@H]3C[C@@H]12` [Tetracycline] was tested, and the MIC90 (A. baumannii ATCC 19606; [9]) was 0.3 µg/mL (≈ 0.675 µM), the MIC90 [8, 12] was 0.6 µg/mL (≈ 1.35 µM) and the MIC90 [8, 13] was 0.6 µg/mL (≈ 1.35 µM). The MIC90 [8, 10] was 0.6 µg/mL (≈ 1.35 µM), the MIC90 [8, 14] was 0.6 µg/mL (≈ 1.35 µM) and the MIC90 [8, 11] was 0.6 µg/mL (≈ 1.35 µM).

In the case of `C[C@@H]1CN2c3c(cc4c(N5C(=O)OC[C@@H]5C)noc4c3F)CC3(C(=O)NC(=O)NC3=O)[C@H]2[C@H](C)O1` [Zoliflodacin], the IC50 (E. coli gyrase) is reported as 0.8 µM, the IC50 (E. coli topoisomerase IV) is reported as 27 ± 12 µM and the IC50 (Human topo IIα) is reported as > 200 µM.
